This is an account of results in patent publication US20110218103A1, “Fluoroalkyl-substituted 2-amidobenzimidazoles” (BAYER CROPSCIENCE AG, priority 2010, published 2011).

For the assay, the system named is Hordeum vulgare (HORVS). In words: Drought stress test on crop plants, spray application in greenhouse, visual damage rating. Type of assay: in vivo. The settings on record: 25 g/ha, mean of three results. How it is done:
Seeds of monocotyledonous and dicotyledonous crop plants were placed in sandy loam in wood-fiber pots, covered with soil and cultivated in a greenhouse under good growth conditions. The test plants were treated at the early leaf stage (BBCH10-BBCH13). To ensure uniform water supply before commencement of stress, the potted plants were supplied with the maximum amount of water immediately beforehand by dam irrigation and, after application, transferred in plastic inserts in order to prevent subsequent, excessively rapid drying. The inventive compounds, formulated in the form of wettable powders (WP), wettable granules (WG), suspension concentrates (SC) or emulsion concentrates (EC), were sprayed onto the green parts of the plants as an aqueous suspension at an equivalent water application rate of 600 l/ha with addition of 0.2% wetting agent (agrotin). Substance application was followed immediately by stress treatment of the plants (cold or drought stress). For cold stress treatment, the plants were kept under the following controlled conditions: Drought stress was induced by gradual drying out under the following conditions: “day”: 14 hours with illumination at 26° C. “night”: 10 hours without illumination at 18° C. The duration of the respective stress phases was guided mainly by the state of the untreated, stressed control plants and thus varies from crop to crop. It was ended (by re-irrigating or transfer to a greenhouse with good growth conditions) as soon as irreversible damage is observed on the untreated, stressed control plants. In the case of dicotyledonous crops, for example oilseed rape and soya, the duration of the drought stress phase was between 3 and 5 days, in the case of monocotyledonous crops, for example wheat, barley or corn, between 6 and 10 days. The duration of the cold stress phase varied between 12 and 14 days. The end of the stress phase was followed by an approx. 5-7-day recovery phase, during which the plants were once again kept under good growth conditions in a greenhouse. In order to rule out any influence of the effects observed by any fungicidal action of the test compounds, it was additionally ensured that the tests proceed without fungal infection and without infection pressure. After the recovery phase had ended, the intensities of damage were rated visually compared to untreated, unstressed controls of the same age (in the case of drought stress) or the same growth stage (in the case of cold stress). The intensity of damage was first assessed as a percentage (100%=plants have died, 0%=like control plants). These values were then used to calculate the efficacy of the test compounds (=percentage reduction in the intensity of damage as a result of substance application) by the following formula: [formula] EF: efficacy (%) DVus: damage value of the untreated, stressed control DVts: damage value of the plants treated with test compound The tables below list mean values in each case from three results of the same test. Effects of selected compounds of the formula (I) under drought stress: HORVS=Hordeum vulgare

Regarding `NC(=O)c1cccc2[nH]c(C(F)(F)C(F)(F)F)nc12` [1-2, 2-(pentafluoroethyl)-1H-benzimidazole-4-carboxamide], the “EF (HORVS), efficacy = percentage reduction in the intensity of damage” value is greater than 5%. To `NC(=O)c1cccc2[nH]c(C(F)(F)C(F)(F)C(F)(F)F)nc12` [1-17] belongs greater than 5%.
